Measured values as given in the NIST ThermoML archive (doi:10.1021/je300873x).

Experiment: mn = molality of the nth substance listed, in mol/kg
Settings: for surface tension liquid-gas: Pendant drop shape; for electrical conductivity: Liquid, Digital conductivity meter

O [water] + CCCCCCCCCCCCCCCC[N+](C)(CCO)CCO.[Br-]
Settings | surface tension liquid-gas [mN/m]
298.15 K, m2 = 0 | 72.17

CCCCCCCCCCCCCCCC[N+](C)(CCO)CCO.[Br-] [hexadecyl- di(2-hydroxyethyl)-methylazanium bromide] + O
Settings | electrical conductivity [S/m] | surface tension liquid-gas [mN/m]
298.15 K, m1 = 0.00011 | – | 64.14
298.15 K, m1 = 0.00021 | – | 58.32
298.15 K, m1 = 0.00032 | – | 52.91
298.15 K, m1 = 0.00042 | – | 47.72
298.15 K, m1 = 0.00053 | – | 44.77
298.15 K, m1 = 0.00056 | 0.0055 | –
298.15 K, m1 = 0.00058 | 0.0057 | –
298.15 K, m1 = 0.0006 | 0.0059 | –
298.15 K, m1 = 0.00063 | 0.0062 | 41.55
298.15 K, m1 = 0.00065 | 0.0064 | –
298.15 K, m1 = 0.00068 | 0.0067 | –
298.15 K, m1 = 0.00072 | 0.0069 | –
298.15 K, m1 = 0.00074 | – | 38.75
298.15 K, m1 = 0.00075 | 0.0072 | –
298.15 K, m1 = 0.00079 | 0.0073 | 38.7
298.15 K, m1 = 0.00084 | 0.0075 | 38.62
298.15 K, m1 = 0.00089 | 0.0077 | 38.55
298.15 K, m1 = 0.00094 | 0.0078 | –
298.15 K, m1 = 0.00095 | – | 38.02
298.15 K, m1 = 0.001 | 0.0081 | –
298.15 K, m1 = 0.00105 | – | 38.11
298.15 K, m1 = 0.00108 | 0.0083 | –
298.15 K, m1 = 0.00116 | 0.0086 | 37.87
298.15 K, m1 = 0.00126 | 0.0089 | 37.86
298.15 K, m1 = 0.00137 | 0.0092 | –
298.15 K, m1 = 0.00151 | 0.0094 | –
303.15 K, m1 = 0.00032 | 0.0034 | –
303.15 K, m1 = 0.00035 | 0.0038 | –
303.15 K, m1 = 0.00039 | 0.0042 | –
303.15 K, m1 = 0.00043 | 0.0046 | –
303.15 K, m1 = 0.0005 | 0.0052 | –
303.15 K, m1 = 0.00058 | 0.0061 | –
303.15 K, m1 = 0.00063 | 0.0066 | –
303.15 K, m1 = 0.00068 | 0.007 | –
303.15 K, m1 = 0.00075 | 0.0075 | –
303.15 K, m1 = 0.00084 | 0.0081 | –
303.15 K, m1 = 0.00094 | 0.0086 | –
303.15 K, m1 = 0.001 | 0.0088 | –
303.15 K, m1 = 0.00107 | 0.0091 | –
303.15 K, m1 = 0.00116 | 0.0094 | –
303.15 K, m1 = 0.00125 | 0.0097 | –
303.15 K, m1 = 0.00137 | 0.01 | –
303.15 K, m1 = 0.0015 | 0.0105 | –
308.15 K, m1 = 0.00031 | 0.0037 | –
308.15 K, m1 = 0.00035 | 0.004 | –
308.15 K, m1 = 0.00038 | 0.0044 | –
308.15 K, m1 = 0.00043 | 0.0049 | –
308.15 K, m1 = 0.00049 | 0.0057 | –
308.15 K, m1 = 0.00058 | 0.0067 | –
308.15 K, m1 = 0.00063 | 0.0072 | –
308.15 K, m1 = 0.00068 | 0.0078 | –
308.15 K, m1 = 0.00075 | 0.0084 | –
308.15 K, m1 = 0.00083 | 0.009 | –
308.15 K, m1 = 0.00094 | 0.0097 | –
308.15 K, m1 = 0.001 | 0.01 | –
308.15 K, m1 = 0.00107 | 0.0102 | –
308.15 K, m1 = 0.00116 | 0.0106 | –
308.15 K, m1 = 0.00125 | 0.0108 | –
308.15 K, m1 = 0.00137 | 0.0112 | –
308.15 K, m1 = 0.0015 | 0.0117 | –
313.15 K, m1 = 0.00058 | 0.0073 | –
313.15 K, m1 = 0.0006 | 0.0075 | –
313.15 K, m1 = 0.00062 | 0.0078 | –
313.15 K, m1 = 0.00065 | 0.0081 | –
313.15 K, m1 = 0.00068 | 0.0084 | –
313.15 K, m1 = 0.00071 | 0.0088 | –
313.15 K, m1 = 0.00075 | 0.009 | –
313.15 K, m1 = 0.00079 | 0.0097 | –
313.15 K, m1 = 0.00083 | 0.0101 | –
313.15 K, m1 = 0.00088 | 0.0105 | –
313.15 K, m1 = 0.00094 | 0.0109 | –
313.15 K, m1 = 0.001 | 0.0112 | –
313.15 K, m1 = 0.00107 | 0.0116 | –
313.15 K, m1 = 0.00115 | 0.012 | –
313.15 K, m1 = 0.00125 | 0.0124 | –
313.15 K, m1 = 0.00136 | 0.0128 | –
313.15 K, m1 = 0.0015 | 0.0133 | –
318.15 K, m1 = 0.00055 | 0.0075 | –
318.15 K, m1 = 0.00058 | 0.0078 | –
318.15 K, m1 = 0.0006 | 0.008 | –
318.15 K, m1 = 0.00062 | 0.0084 | –
318.15 K, m1 = 0.00065 | 0.0087 | –
318.15 K, m1 = 0.00068 | 0.0091 | –
318.15 K, m1 = 0.00071 | 0.0095 | –
318.15 K, m1 = 0.00075 | 0.0099 | –
318.15 K, m1 = 0.00079 | 0.0105 | –
318.15 K, m1 = 0.00083 | 0.0111 | –
318.15 K, m1 = 0.00088 | 0.0116 | –
318.15 K, m1 = 0.00093 | 0.0122 | –
318.15 K, m1 = 0.001 | 0.0127 | –
318.15 K, m1 = 0.00107 | 0.0131 | –
318.15 K, m1 = 0.00115 | 0.0135 | –
318.15 K, m1 = 0.00125 | 0.0139 | –
318.15 K, m1 = 0.00136 | 0.0145 | –
318.15 K, m1 = 0.0015 | 0.0152 | –
323.15 K, m1 = 0.00055 | 0.008 | –
323.15 K, m1 = 0.00057 | 0.0083 | –
323.15 K, m1 = 0.0006 | 0.0086 | –
323.15 K, m1 = 0.00062 | 0.0089 | –
323.15 K, m1 = 0.00065 | 0.0093 | –
323.15 K, m1 = 0.00068 | 0.0097 | –
323.15 K, m1 = 0.00071 | 0.0101 | –
323.15 K, m1 = 0.00075 | 0.0106 | –
323.15 K, m1 = 0.00079 | 0.0112 | –
323.15 K, m1 = 0.00083 | 0.0117 | –
323.15 K, m1 = 0.00088 | 0.0124 | –
323.15 K, m1 = 0.00093 | 0.0131 | –
323.15 K, m1 = 0.00099 | 0.0137 | –
323.15 K, m1 = 0.00107 | 0.0143 | –
323.15 K, m1 = 0.00115 | 0.0148 | –
323.15 K, m1 = 0.00124 | 0.0154 | –
323.15 K, m1 = 0.00136 | 0.0161 | –
323.15 K, m1 = 0.00149 | 0.0169 | –
